In US20210380548A1, “Fused [1,2,4]Thiadiazine Derivatives Which Act as KAT Inhibitors of the MYST Family” (CTxT Pty Limited, priority 2017, published 2021):

Columns and labels:
MOF-KAT8 [1] = biological target: T1, MOF-KAT8 (Homo sapiens, UniProt Q9H7Z6); assay: Acetyltransferase biochemical assay (AlphaScreen), KAT8; settings: Table 4 (MOF-KAT8); 0.4 μM Acetyl coenzyme A, histone H4, 20 nM enzyme
T1 sequence (Q9H7Z6 177-447): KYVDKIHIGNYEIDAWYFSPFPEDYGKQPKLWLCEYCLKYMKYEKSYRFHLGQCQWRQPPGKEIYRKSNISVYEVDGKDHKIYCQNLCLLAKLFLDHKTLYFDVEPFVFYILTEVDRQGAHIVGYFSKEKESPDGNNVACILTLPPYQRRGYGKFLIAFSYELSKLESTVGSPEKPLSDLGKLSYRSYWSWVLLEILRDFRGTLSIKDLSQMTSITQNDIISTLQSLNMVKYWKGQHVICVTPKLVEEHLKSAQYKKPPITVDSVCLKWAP

MOZ-KAT6A = biological target: T2, MOZ-KAT6A (Homo sapiens, UniProt Q92794, A567V); assay: Acetyltransferase biochemical assay (AlphaScreen), KAT6A; settings: Table 2 (MOZ-KAT6A); 10 μM Acetyl coenzyme A, histone H3.1, 5 nM enzyme
T2 construct: encoding amino acid residues 507 to 778 (Uniprot Q92794-1) of human KAT6A; made in house; host or cells: E. coli BL21 DE3

TIP60-KAT5 = biological target: T3, TIP60-KAT5 (Homo sapiens, UniProt Q92993); assay: Revised Acetyltransferase Biochemical Assay, KAT5; settings: 10 nM KAT5, 1 μM AcCoA, 100 nM histone H4, 90 min
T3 construct: encoding amino acid residues 2 to 461 (Uniprot Q92993-2) of human KAT5 isoform; made in house; host or cells: E. coli BL21 DE3

QKF-KAT6B = biological target: T4, QKF-KAT6B (Homo sapiens, UniProt Q8WYB5); assay: Revised Acetyltransferase Biochemical Assay, KAT6B; settings: 8 nM KAT6B, 1 μM AcCoA, 100 nM histone H3.1, 90 min
T4 construct: purchased SignalChem K315-381BG
Text: KAT6B was obtained from SignalChem, catalog ID: K315-381BG

[2] = test system: histone H3K14 acetylation (HBO1 mediated) in U2OS cells; assay: Histone H3 Lysine 14 Acetylation Biomarker Assay (96 well, U2OS); assay type: cell-based; settings: Homo sapiens, 24 h, Table 6, H3K14ac, 24 hours incubation, serum free medium
Outline: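 U2OS cells treated 24 h with compound in serum-free medium, then fixed and immunostained for H3K14ac (Alexa647) with Hoechst nuclear stain. High-content imaging gives mean nuclear intensity per cell, converted to % inhibition against DMSO and 10 μM reference-inhibitor controls; IC50 from four-parameter logistic fit.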

[3] = test system: histone H2A.Z Lysine 7 acetylation (TIP60 mediated) in U2OS cells; assay: H2A.Z Lysine 7 Acetylation Biomarker Assay (96 well, U2OS); assay type: cell-based; settings: Homo sapiens, Table 7, H2A.Z K7ac, 24 hours incubation, serum free medium
Experimental: To discover a global TIP60/KAT5 cellular biomarker useful for monitoring PD responses of TIP60 inhibition in vitro and in vivo, various histone modifications were assessed for TIP60 dependence through genetic (TIP60 siRNA and CRISPR/Cas9) or TIP60 pharmacological inhibition. This analysis clearly identified acetylation of the histone variant H2A.Z at Lysine 7 (H2A.ZK7ac) as a global histone mark which is TIP60-dependent in both human and mouse cells. To a lesser extent, TIP60 also acetylated lysine 4 and 11 of H2A.Z.
Compounds may be tested for their ability to inhibit the histone H2A.Z Lysine 7 acetylation biomarker (which is TIP60 mediated) in the following assay:
The cell line U2OS was seeded at a density of 9,000 cells per well in 96 well optical quality tissue culture plates in RPMI medium and 10% foetal bovine serum, and allowed to adhere for 24 hours under standard culture conditions (37 degree Celsius, 5% CO2). At the end of this period the cells were washed with serum free medium. Compound dilutions prepared in DMSO were added to the serum free medium, with negative control wells reserved for treatment with DMSO only and positive controls receiving a potent inhibitor compound (e.g. Example 146) at 20 μM concentration. After incubation for 24 hours, the cells were fixed with 3.7% formaldehyde in PBS for 20 minutes at room temperature, washed with phosphate buffer saline containing 0.1% Tween 20 and blocked with Odyssey blocking buffer (LI-COR, Lincoln, Nebr.) containing 0.1% TritonX100. Anti-H2A.Z K7ac specific antibody (Abcam) in Odyssey blocking buffer containing 0.1% Tween 20 was added and incubated for 14 hours at 4 degree Celsius. After washing, a secondary antibody labelled with Alexa647 dye (LifeTechnologies) and Hoechst 33342 (10 μM, SigmaAldrich) were added for 1 hour incubation. Plates were washed and read on a PerkinElmer Phenix high content imaging platform. Using a Columbus image analysis pipeline, individual nuclei were located by Hoechst 33342 stain and the acetylation level was calculated from the Alexa647-related intensity in the same area. The resulting mean intensity per cell was directly converted to percent inhibition relative to controls on the same plate and the data fitted against a four-parameter logistic model to determine the 50% inhibitory concentration (IC50).

MOF-KAT8 [4] = biological target: T1, MOF-KAT8; assay: Revised Acetyltransferase Biochemical Assay, KAT8

T4 sequence (Q8WYB5 whole entry): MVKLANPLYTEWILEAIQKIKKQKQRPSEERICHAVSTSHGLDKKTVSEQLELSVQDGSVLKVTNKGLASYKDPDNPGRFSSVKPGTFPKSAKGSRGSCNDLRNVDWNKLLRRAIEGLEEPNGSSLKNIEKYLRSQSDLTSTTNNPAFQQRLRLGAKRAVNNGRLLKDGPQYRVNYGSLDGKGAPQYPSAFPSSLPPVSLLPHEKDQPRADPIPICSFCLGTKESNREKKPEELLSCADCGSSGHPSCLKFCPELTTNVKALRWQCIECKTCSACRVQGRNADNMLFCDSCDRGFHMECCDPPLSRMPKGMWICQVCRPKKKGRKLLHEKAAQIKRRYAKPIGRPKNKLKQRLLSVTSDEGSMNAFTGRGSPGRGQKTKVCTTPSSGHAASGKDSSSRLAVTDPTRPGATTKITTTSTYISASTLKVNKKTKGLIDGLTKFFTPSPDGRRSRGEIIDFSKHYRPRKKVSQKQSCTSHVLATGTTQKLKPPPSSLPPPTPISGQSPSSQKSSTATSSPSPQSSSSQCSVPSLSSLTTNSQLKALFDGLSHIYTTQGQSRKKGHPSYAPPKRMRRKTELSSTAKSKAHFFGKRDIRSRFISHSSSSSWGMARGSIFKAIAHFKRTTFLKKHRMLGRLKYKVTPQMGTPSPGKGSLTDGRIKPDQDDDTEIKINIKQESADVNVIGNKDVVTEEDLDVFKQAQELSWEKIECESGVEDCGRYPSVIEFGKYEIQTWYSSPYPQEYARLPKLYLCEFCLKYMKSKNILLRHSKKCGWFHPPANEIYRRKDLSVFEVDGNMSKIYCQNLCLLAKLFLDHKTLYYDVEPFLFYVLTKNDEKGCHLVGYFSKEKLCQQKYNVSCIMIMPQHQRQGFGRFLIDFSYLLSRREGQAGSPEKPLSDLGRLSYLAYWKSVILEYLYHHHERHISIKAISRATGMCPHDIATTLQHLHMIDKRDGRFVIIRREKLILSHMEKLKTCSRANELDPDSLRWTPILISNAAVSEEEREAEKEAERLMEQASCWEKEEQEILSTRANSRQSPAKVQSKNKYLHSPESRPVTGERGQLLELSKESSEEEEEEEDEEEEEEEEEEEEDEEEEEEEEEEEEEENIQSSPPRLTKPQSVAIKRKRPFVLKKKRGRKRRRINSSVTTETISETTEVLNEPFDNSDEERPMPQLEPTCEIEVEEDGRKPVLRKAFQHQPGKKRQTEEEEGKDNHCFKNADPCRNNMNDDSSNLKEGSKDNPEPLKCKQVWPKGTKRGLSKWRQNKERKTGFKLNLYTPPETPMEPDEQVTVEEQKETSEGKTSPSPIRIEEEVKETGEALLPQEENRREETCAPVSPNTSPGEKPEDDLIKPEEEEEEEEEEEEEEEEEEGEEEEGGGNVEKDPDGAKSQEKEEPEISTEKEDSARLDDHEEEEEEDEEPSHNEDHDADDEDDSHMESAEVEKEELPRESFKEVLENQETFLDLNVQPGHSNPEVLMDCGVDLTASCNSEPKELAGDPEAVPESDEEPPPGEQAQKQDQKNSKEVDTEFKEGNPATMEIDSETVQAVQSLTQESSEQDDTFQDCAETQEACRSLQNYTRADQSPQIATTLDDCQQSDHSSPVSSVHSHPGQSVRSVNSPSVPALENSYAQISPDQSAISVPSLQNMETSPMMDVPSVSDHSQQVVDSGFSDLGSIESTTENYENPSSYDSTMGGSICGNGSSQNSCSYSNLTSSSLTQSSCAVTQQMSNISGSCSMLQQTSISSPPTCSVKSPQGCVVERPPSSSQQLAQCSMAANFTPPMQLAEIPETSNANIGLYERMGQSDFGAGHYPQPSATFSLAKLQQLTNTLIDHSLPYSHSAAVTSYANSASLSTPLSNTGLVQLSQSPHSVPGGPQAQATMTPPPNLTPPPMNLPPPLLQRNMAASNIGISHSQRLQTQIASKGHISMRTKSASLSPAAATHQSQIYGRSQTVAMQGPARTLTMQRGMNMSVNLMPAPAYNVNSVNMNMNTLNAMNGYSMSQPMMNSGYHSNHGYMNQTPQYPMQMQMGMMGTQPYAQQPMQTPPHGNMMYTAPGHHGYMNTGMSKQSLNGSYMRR
T3 sequence (Q92993 2-461 isoform Q92993-2): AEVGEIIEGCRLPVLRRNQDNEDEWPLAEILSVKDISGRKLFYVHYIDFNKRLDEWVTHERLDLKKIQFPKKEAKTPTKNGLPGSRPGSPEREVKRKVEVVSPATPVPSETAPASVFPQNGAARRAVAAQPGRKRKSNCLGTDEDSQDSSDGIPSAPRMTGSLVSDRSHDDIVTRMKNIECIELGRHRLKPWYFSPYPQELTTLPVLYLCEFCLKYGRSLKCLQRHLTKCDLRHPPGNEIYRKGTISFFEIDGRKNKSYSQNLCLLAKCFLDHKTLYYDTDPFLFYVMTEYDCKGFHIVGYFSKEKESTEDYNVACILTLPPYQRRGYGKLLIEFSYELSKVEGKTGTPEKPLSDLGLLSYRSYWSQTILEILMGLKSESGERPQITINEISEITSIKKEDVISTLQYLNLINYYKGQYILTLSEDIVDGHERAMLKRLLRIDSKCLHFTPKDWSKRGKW
T2 sequence (Q92794 507-778 A567V limits assumed): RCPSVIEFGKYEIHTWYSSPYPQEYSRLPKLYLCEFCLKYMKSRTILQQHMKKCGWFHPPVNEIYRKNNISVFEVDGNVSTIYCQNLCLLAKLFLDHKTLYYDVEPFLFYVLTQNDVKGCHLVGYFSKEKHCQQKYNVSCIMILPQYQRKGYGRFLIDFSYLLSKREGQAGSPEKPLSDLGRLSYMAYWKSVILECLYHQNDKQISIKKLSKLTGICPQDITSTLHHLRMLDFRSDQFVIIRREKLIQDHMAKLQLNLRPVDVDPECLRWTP

O=C(NCC(c1ccccc1)c1ncco1)C1=Nc2ccc(Br)cc2S(=O)(=O)N1 (centres unmarked) [Example 1, 7-Bromo-N-(2-(oxazol-2-yl)-2-phenylethyl)-2H-benzo[e][1,2,4]thiadiazine-3-carboxamide 1,1-dioxide]
IC50 (MOF-KAT8 [1]): 14600 nM | IC50 (MOZ-KAT6A): 24.1 nM | IC50 (TIP60-KAT5): 68 nM | IC50 (QKF-KAT6B): 60 nM | IC50 [2]: 317 nM | IC50 [3]: 2180 nM | IC50 (MOF-KAT8 [4]): 4540 nM

O=C(NCC(c1ccccc1)c1ncco1)C1=Nc2ccccc2S(=O)(=O)N1 (centres unmarked) [Example 46, N-(2-(oxazol-2-yl)-2-phenylethyl)-2H-benzo[e][1,2,4]thiadiazine-3-carboxamide 1,1-dioxide]
IC50 (MOF-KAT8 [1]): 88200 nM | IC50 (MOZ-KAT6A): 324 nM | IC50 (TIP60-KAT5): 4050 nM | IC50 (QKF-KAT6B): 589 nM | IC50 [2]: 8160 nM | IC50 [3]: 30000 nM | IC50 (MOF-KAT8 [4]): 99400 nM

O=C(NCCc1ccccc1-n1nccn1)C1=Nc2ccc(I)cc2S(=O)(=O)N1 [Example 60, N-(2-(2H-1,2,3-triazol-2-yl)phenethyl)-7-iodo-2H-benzo[e][1,2,4]thiadiazine-3-carboxamide 1,1-dioxide]
IC50 (TIP60-KAT5): 58 nM | IC50 (QKF-KAT6B): 39 nM | IC50 [2]: 1610 nM | IC50 [3]: 2060 nM | IC50 (MOF-KAT8 [4]): 24000 nM

O=C(NCCc1ccccc1OC(F)F)C1=Nc2ccc(I)cc2S(=O)(=O)N1 [Example 91]
IC50 (MOF-KAT8 [1]): 12100 nM | IC50 (MOZ-KAT6A): 594 nM | IC50 (TIP60-KAT5): 90 nM | IC50 (QKF-KAT6B): 350 nM | IC50 [2]: 615 nM | IC50 [3]: 10000 nM | IC50 (MOF-KAT8 [4]): 21100 nM
